# Measurements taken from patent US10543212B2, “Substituted amines for treating cardiac diseases” (Cardurion Pharmaceuticals, LLC, priority 2017, dated 2020).
# Molecular target: T1, Full-length, GST-tagged, human CaMKIIδ (Homo sapiens, UniProt Q13557)
# T1 construct: Full-Length, Glutathione-S-Transferase(GST)-Tagged, Human CaMKIIδ was purchased from Carna Biosciences; purchased Carna Biosciences 02-111
# Assay: CaMKIIδ binding assay (TR-FRET with BODIPY-labeled probe ligand)
# Settings: CaMKIIδ binding assay; activity class per Table 2
# Method in brief: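 Compounds were tested as 4-fold, eight-point series for 1 hr at room temperature, and IC50 was obtained by logistic fitting against a 3 μM parent-compound control. Signal came from displacement of a 300 nM BODIPY ligand from 0.5 nM GST-CaMKIIδ, detected via Tb-anti-GST in calmodulin/Ca2+ (pH 7.6).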
# T1 sequence (Q13557 1-478 isoform Q13557-12): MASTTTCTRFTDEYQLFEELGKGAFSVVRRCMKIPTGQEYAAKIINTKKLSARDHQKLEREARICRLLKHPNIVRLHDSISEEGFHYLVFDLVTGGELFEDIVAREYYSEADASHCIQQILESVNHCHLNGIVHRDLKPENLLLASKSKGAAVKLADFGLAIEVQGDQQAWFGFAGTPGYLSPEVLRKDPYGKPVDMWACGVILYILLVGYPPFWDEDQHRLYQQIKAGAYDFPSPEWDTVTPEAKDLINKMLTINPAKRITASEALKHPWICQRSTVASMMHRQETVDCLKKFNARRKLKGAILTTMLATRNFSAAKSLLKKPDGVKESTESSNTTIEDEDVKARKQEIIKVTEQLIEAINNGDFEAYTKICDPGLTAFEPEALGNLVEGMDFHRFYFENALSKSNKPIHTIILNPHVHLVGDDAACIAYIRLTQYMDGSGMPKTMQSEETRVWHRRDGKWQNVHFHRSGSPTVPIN
row,SMILES,IC50
1,"CCn1ncc(Nc2ncc(-c3ccc(Cl)c(O[C@@H](C)Cn4cnnn4)c3)cn2)c1C(=O)N1CCC(N2CCOCC2)CC1 [Example 880, (S)-(4-((5-(3-((1-(1H-tetrazol-1-yl)propan-2-yl)oxy)-4-chlorophenyl)pyrimidin-2-yl)amino)-1-ethyl-1H-pyrazol-5-yl) (4-morpholinopiperidin-1-yl)methanone]",≥ 100 nM
2,"C[C@@H](COC(F)F)Oc1cc(-c2cnc(Nc3cn(C4CC5(C4)CN(C4CCOCC4)C5)nc3OCC(F)(F)F)nc2)ccc1C#N [Example 881, (S)-2-((1-(difluoromethoxy)propan-2-yl)oxy)-4-(2-((1-(2-(tetrahydro-2H-pyran-4-yl)-2-azaspiro[3.3]heptan-6-yl)-3-(2,2,2-trifluoroethoxy)-1H-pyrazol-4-yl)amino)pyrimidin-5-yl)benzonitrile]",< 10 nM
3,"C[C@@H](Cn1cnnn1)Oc1cc(-c2cnc(Nc3cn(CC4(O)CCNCC4)nc3C(F)(F)F)nc2)ccc1Cl [Example 882, (S)-4-((4-((5-(3-((1-(1H-tetrazol-1-yl)propan-2-yl)oxy)-4-chlorophenyl)pyrimidin-2-yl)amino)-3-(trifluoromethyl)-1H-pyrazol-1-yl)methyl)piperidin-4-ol]",< 10 nM
4,"C[C@@H](Cn1cnnn1)Oc1cc(-c2cnc(Nc3cn(C(C)(C)CO)nc3OCC(F)(F)F)nc2)ccc1Cl [Example 883, (S)-2-(4-((5-(3-((1-(1H-tetrazol-1-yl)propan-2-yl)oxy)-4-chlorophenyl)pyrimidin-2-yl)amino)-3-(2,2,2-trifluoroethoxy)-1H-pyrazol-1-yl)-2-methylpropan-1-ol]",< 10 nM
5,"C[C@@H](Cn1cnnn1)Oc1cc(-c2cnc(Nc3cn(CCNS(C)(=O)=O)nc3C(F)(F)F)nc2)ccc1Cl [Example 884, (S)-N-(2-(4-((5-(3-((1-(1H-tetrazol-1-yl)propan-2-yl)oxy)-4-chlorophenyl)pyrimidin-2-yl)amino)-3-(trifluoromethyl)-1H-pyrazol-1-yl)ethyl)methanesulfonamide]",10 to 100 nM
6,"CCOC(=O)C(C)(C)n1cc(Nc2ncc(-c3ccc(Cl)c(O[C@@H](C)Cn4cnnn4)c3)cn2)c(OCC(F)(F)F)n1 [Example 885, ethyl (S)-2-(4-((5-(3-((1-(1H-tetrazol-1-yl)propan-2-yl)oxy)-4-chlorophenyl)pyrimidin-2-yl)amino)-3-(2,2,2-trifluoroethoxy)-1H-pyrazol-1-yl)-2-methylpropanoate]",< 10 nM
7,"C[C@@H](Cn1cnnn1)Oc1cc(-c2cnc(Nc3cn(CC4(O)CCOCC4)nc3OCC(F)(F)F)nc2)ccc1Cl [Example 886, (S)-4-((4-((5-(3-((1-(1H-tetrazol-1-yl)propan-2-yl)oxy)-4-chlorophenyl)pyrimidin-2-yl)amino)-3-(2,2,2-trifluoroethoxy)-1H-pyrazol-1-yl)methyl)tetrahydro-2H-pyran-4-ol]",< 10 nM
8,"C[C@@H](Cn1cnnn1)Oc1cc(-c2cnc(Nc3cn(CCNC(N)=O)nc3C(F)(F)F)nc2)ccc1Cl [Example 887, (S)-1-(2-(4-((5-(3-((1-(1H-tetrazol-1-yl)propan-2-yl)oxy)-4-chlorophenyl)pyrimidin-2-yl)amino)-3-(trifluoromethyl)-1H-pyrazol-1-yl)ethyl)urea]",10 to 100 nM
9,"C[C@@H](Cn1cnnn1)Oc1cc(-c2cnc(Nc3cn(CC4(O)CCN(C(N)=O)CC4)nc3C(F)(F)F)nc2)ccc1Cl [Example 888, (S)-4-((4-((5-(3-((1-(1H-tetrazol-1-yl)propan-2-yl)oxy)-4-chlorophenyl)pyrimidin-2-yl)amino)-3-(trifluoromethyl)-1H-pyrazol-1-yl)methyl)-4-hydroxypiperidine-1-carboxamide]",< 10 nM
10,"C[C@@H](Cn1cnnn1)Oc1cc(-c2cnc(Nc3cn(C(C)(C)C(=O)O)nc3OCC(F)(F)F)nc2)ccc1Cl [Example 889, (S)-2-(4-((5-(3-((1-(1H-tetrazol-1-yl)propan-2-yl)oxy)-4-chlorophenyl)pyrimidin-2-yl)amino)-3-(2,2,2-trifluoroethoxy)-1H-pyrazol-1-yl)-2-methylpropanoic acid]",10 to 100 nM
11,"C[C@@H](Cn1cnnn1)Oc1cc(-c2cnc(Nc3cn(-c4cn[nH]c4)nc3C(F)(F)F)nc2)ccc1Cl [Example 890, (S)-N-(5-(3-((1-(1H-tetrazol-1-yl)propan-2-yl)oxy)-4-chlorophenyl)pyrimidin-2-yl)-3-(trifluoromethyl)-1′H-[1,4′-bipyrazol]-4-amine]",10 to 100 nM
12,"C[C@@H](Cn1cnnn1)Oc1cc(-c2cnc(Nc3cn(CC4(O)CCN(C)CC4)nc3C(F)(F)F)nc2)ccc1Cl [Example 891, (S)-4-((4-((5-(3-((1-(1H-tetrazol-1-yl)propan-2-yl)oxy)-4-chlorophenyl)pyrimidin-2-yl)amino)-3-(trifluoromethyl)-1H-pyrazol-1-yl)methyl)-1-methylpiperidin-4-ol]",< 10 nM
13,"C[C@H](Cn1cnnn1)Oc1cc(-c2cnc(Nc3cn([C@H]4CC[C@H](N5CCOCC5)CC4)nc3C(F)(F)F)nc2)ccc1Cl [Example 893, 5-(3-(((R)-1-(1H-tetrazol-1-yl)propan-2-yl)oxy)-4-chlorophenyl)-N-(1-(trans-4-morpholinocyclohexyl)-3-(trifluoromethyl)-1H-pyrazol-4-yl)pyrimidin-2-amine]",10 to 100 nM
14,"C[C@@H](Cn1cnnn1)Oc1cc(-c2cnc(Nc3cn(C(C)(C)C(N)=O)nc3OCC(F)(F)F)nc2)ccc1Cl [Example 894, (S)-2-(4-((5-(3-((1-(1H-tetrazol-1-yl)propan-2-yl)oxy)-4-chlorophenyl)pyrimidin-2-yl)amino)-3-(2,2,2-trifluoroethoxy)-1H-pyrazol-1-yl)-2-methylpropanamide]",< 10 nM
15,"C[C@@H](Cn1cnnn1)Oc1cc(-c2cnc(Nc3cn(C(C)(C)C(=O)N4CCOCC4)nc3OCC(F)(F)F)nc2)ccc1Cl [Example 895, (S)-2-(4-((5-(3-((1-(1H-tetrazol-1-yl)propan-2-yl)oxy)-4-chlorophenyl)pyrimidin-2-yl)amino)-3-(2,2,2-trifluoroethoxy)-1H-pyrazol-1-yl)-2-methyl-1-morpholinopropan-1-one]",10 to 100 nM
16,"C[C@H](Cn1cnnn1)Oc1cc(-c2cnc(Nc3cn([C@H]4CC[C@@H](N5CCOCC5)CC4)nc3C(F)(F)F)nc2)ccc1Cl [Example 896, 5-(3-(((R)-1-(1H-tetrazol-1-yl)propan-2-yl)oxy)-4-chlorophenyl)-N-(1-(cis-4-morpholinocyclohexyl)-3-(trifluoromethyl)-1H-pyrazol-4-yl)pyrimidin-2-amine]",≥ 100 nM
17,"C[C@@H](Cn1cnnn1)Oc1cc(-c2cnc(Nc3cn(CC4(O)CCC5(CC4)OCCO5)nc3OCC(F)(F)F)nc2)ccc1Cl [Example 899, (S)-8-((4-((5-(3-((1-(1H-tetrazol-1-yl)propan-2-yl)oxy)-4-chlorophenyl)pyrimidin-2-yl)amino)-3-(2,2,2-trifluoroethoxy)-1H-pyrazol-1-yl)methyl)-1,4-dioxaspiro[4.5]decan-8-ol]",< 10 nM
18,"C[C@@H](CN1CCCC1=O)Oc1cc(-c2cnc(Nc3cn([C@H]4CC[C@H](N5CCOCC5)CC4)nc3C(F)(F)F)nc2)ccc1C#N [Example 900, 4-(2-((1-(trans-4-morpholinocyclohexyl)-3-(trifluoromethyl)-1H-pyrazol-4-yl)amino)pyrimidin-5-yl)-2-(((S)-1-(2-oxopyrrolidin-1-yl)propan-2-yl)oxy)benzonitrile]",10 to 100 nM
19,"COc1ccc(-n2cc(Nc3ncc(-c4ccc(Cl)c(O[C@@H](C)Cn5cnnn5)c4)cn3)c(OCC(F)(F)F)n2)cn1 [Example 901, (S)-5-(3-((1-(1H-tetrazol-1-yl)propan-2-yl)oxy)-4-chlorophenyl)-N-(1-(6-methoxypyridin-3-yl)-3-(2,2,2-trifluoroethoxy)-1H-pyrazol-4-yl)pyrimidin-2-amine]",10 to 100 nM
20,"C[C@@H](Cn1cnnn1)Oc1cc(-c2cnc(Nc3cn(-c4ccc(=O)[nH]c4)nc3OCC(F)(F)F)nc2)ccc1Cl [Example 902, (S)-5-(4-((5-(3-((1-(1H-tetrazol-1-yl)propan-2-yl)oxy)-4-chlorophenyl)pyrimidin-2-yl)amino)-3-(2,2,2-trifluoroethoxy)-1H-pyrazol-1-yl)pyridin-2(1H)-one]",< 10 nM
21,"C[C@@H](Cn1cnnn1)Oc1cc(-c2cnc(Nc3cn(CC4(O)CCC(=O)CC4)nc3OCC(F)(F)F)nc2)ccc1Cl [Example 903, (S)-4-((4-((5-(3-((1-(1H-tetrazol-1-yl)propan-2-yl)oxy)-4-chlorophenyl)pyrimidin-2-yl)amino)-3-(2,2,2-trifluoroethoxy)-1H-pyrazol-1-yl)methyl)-4-hydroxycyclohexan-1-one]",< 10 nM

# Same assay, conditions: Table 2; CaMKIIδ binding assay, activity given as class A/B/C
row,SMILES,IC50
1,"C[C@@H](Cn1cnnn1)Oc1cc(-c2cnc(Nc3cn(CCN)nc3C(F)(F)F)nc2)ccc1Cl [Example 877, (S)-5-(3-((1-(1H-tetrazol-1-yl)propan-2-yl)oxy)-4-chlorophenyl)-N-(1-(2-aminoethyl)-3-(trifluoromethyl)-1H-pyrazol-4-yl)pyrimidin-2-amine]",< 10 nM
2,"COc1cccc(-n2cc(Nc3ncc(-c4ccc(Cl)c(O[C@@H](C)Cn5cnnn5)c4)cn3)c(OCC(F)(F)F)n2)n1 [Example 878, (S)-5-(3-((1-(1H-tetrazol-1-yl)propan-2-yl)oxy)-4-chlorophenyl)-N-(1-(6-methoxypyridin-2-yl)-3-(2,2,2-trifluoroethoxy)-1H-pyrazol-4-yl)pyrimidin-2-amine]",≥ 100 nM
3,"C[C@@H](Cn1cnnn1)Oc1cc(-c2cnc(Nc3cn(-c4cccc(=O)[nH]4)nc3OCC(F)(F)F)nc2)ccc1Cl [Example 879, (S)-6-(4-((5-(3-((1-(1H-tetrazol-1-yl)propan-2-yl)oxy)-4-chlorophenyl)pyrimidin-2-yl)amino)-3-(2,2,2-trifluoroethoxy)-1H-pyrazol-1-yl)pyridin-2(1H)-one]",10 to 100 nM
